Test results from US8858995B2, “Methods and compositions for controlled delivery of phytochemical agents” (priority 2008, dated 2014).
Read-outs that look alike come from different tables or passages of the source.

Assays:
[1] = Effect of phytochemical agent load on in vitro release; assay type: physicochemical; settings: curcumin 2, 5, 20% w/w, GTPs 1, 2.5, 5, 10% w/w
Experimental: The medium was replaced daily and the amount of curcumin released from each composition per day was measured spectrophotometrically against a standard curve and expressed as μg/day. A similar experiment was also performed to examine the effect of incorporating various amounts of GTPs into a biocompatible polymeric matrix on the in vitro release of the agents.

[2] = Lung and liver curcumin levels after subcutaneous implantation of curcumin matrices; assay type: in vivo, Sprague-Dawley rats
[3] = In vitro release of curcumin from device for cervical insertion; assay type: physicochemical; settings: after approximately 5 days in release medium; 18 days release period
Experimental: The medium was replaced daily and the amount of curcumin released from the compositions per day was measured spectrophotometrically against a standard curve and expressed as micrograms per day.

[4] = In vitro release of curcumin from PCL-121K:PEG-8K (65:35) implants; assay type: physicochemical
Experimental: Both solutions were then mixed together to prepare a homogenous solution of drug and polymers. The solvents were evaporated on a water bath maintained at 65° C. followed by overnight drying under vacuum at 65° C. to remove residual solvents to prepare an amorphous molecular dispersion of drug in polymer. The dried molten polymer was then extruded through silastic tubing mold (internal diameter 3.4 mm) attached to a syringe. After a few minutes, the cylindrical implants were removed from the tubing and excised into desired lengths (2.0 cm, 200 mg containing 40 mg drug) and stored at −20° C. under argon until used.
PBS was supplemented with BCS (10% v/v) to mimic extracellular fluid composition and to simulate the in vivo situation. Amber-colored vials (n=3) containing a 2-cm implant each were incubated at 37±0.5° C. in a reciprocating (150 rpm) shaker water bath (Julabo S W23, Seelbach, Germany), and the release medium was changed after every 24 h.

CYP3A4 = CYP3A4 activity in hepatic microsomes; assay type: in vivo, ACI rats
Experimental: To evaluate the xenobiotic-metabolizing enzymes, liver samples from the animals (approximately 100 mg) were homogenized in 0.25 M sucrose buffer (pH 7.4) at 3000 rpm with Polytron. The homogenate was centrifuged at 3000 g for 20 min at 4° C. to separate the nuclear content, and the supernatant was then collected and again centrifuged at 11,000 g for 20 min at 4° C. to separate the mitochondria. The post-mitochondrial supernatant was then transferred to ultracentrifuge tubes and finally centrifuged at 100,000 g for 1 h at 4° C. to separate the microsomes. The pellet was suspended in 1 ml sucrose buffer, aliquoted and stored at −80° C. until use.

[5] = Safety and biocompatibility of curcumin implants; assay type: in vivo; settings: curcumin doses administered by the implants; at least 3 months
Text: As such, the further study was designed in continuation to above-described experiments (i) to analyze the in vivo release from these implants, (ii) to compare the tissue distribution of curcumin delivered via these implants with curcumin delivered via diet, and finally (iii) to compare the efficacy of curcumin delivered via both routes.

[6] = In vitro release from coated (and extruded) polymeric implants; assay type: physicochemical; settings: 37° C., no serum
Experimental: To formulate the “coated” polymeric implants, blank P-80 implants (1.4 mm dia) were then prepared by dissolving P-80:F68 (9:1) in dichloromethane, followed by evaporation of the solvent in a Petri dish under hood and extrusion of the molten polymer through a silastic tubing mold, similar to the methodologies described herein above. […] For coating, one end of the blank implant (2.5-3.5 cm) was inserted into a silastic tube plug (6 mm long, 1.4 mm dia) while the other end of the plug was attached with a pipet tip. Coatings were then added by dipping the blank implant into the solution with intermittent drying with cool air using a commercial hair dryer and placing them under hood. […] The assembly was placed under hood overnight to remove the residual DCM, implants were excised in 1 or 2 cm lengths and stored in amber vials under argon at -20° C. until used. The rate of in vitro release for the implants was subsequently measured. […] The vials were placed in a water bath (Julabo S W 23, Seelback, Germany) at 37° C. with constant agitation at 110 rpm. The medium was changed every 24 h.

[7] = mouse, sc
Experimental: (§1) To assess the coated implants (i.e., where the compositions were in the form of coatings), in vivo studies were also performed. […] All groups of animals were also treated with dibenzo[a,I]pyrene (DBP) via polymeric implants (1-cm, 1.4 mm dia, 5% DBP load) at the same time. Implants were grafted subcutaneously, and animal were euthanized after 3 weeks. […] In both cases, animals were euthanized by CO2 asphyxiation and selected tissues (lung, liver and brain) were collected and stored at −80° C. until processing. Implants were also recovered, dried under vacuum and stored in amber vials under argon at 4° C. until analysis.
The supernatants were diluted with ethanol:DCM (80:20) and their concentrations were measured spectrophotometrically at maximal absorbance and the concentrations were calculated against standard curves of individual compounds.

DBP-DNA adducts = test: Dibenzo[a,I]pyrene (DBP)-DNA adducts in lung (32P-postlabeling); assay type: in vivo, A/J mice; settings: two 1.5 cm coated implants; DBP implant; 3 weeks
Experimental: as §1
To analyze the formation of DNA adducts, DNA was isolated from lung tissue (200 mg) by treatment of the isolated crude nuclei with RNases and proteinase K, followed by extractions with phenol, phenol:Sevag and Sevag. DNA was recovered by ethanol precipitation and its concentration was measured spectrophotometrically considering 1 A260 equals 50 μg DNA. DNA adducts were analyzed by nuclease P1-mediated ^32P-postlabeling/TLC assay and expressed as adducts per 10^9 nucleotides.

[8] = system: B[a]P-induced DNA adducts
[9] = system: B[a]P-induced DNA adducts; remark: listed apart in the source
[10] = 1 cm PCL matrix with 20 mg curcumin, s.c., bolus B[a]P
[11] = dietary curcumin 400 ppm, bolus B[a]P
[12] = dietary curcumin 400 ppm, single i.p. B[a]P 50 mg/kg
[13] = curcumin implants, B[a]P implant 1 cm, 10 mg, 30 days post B[a]P
[14] = curcumin implants, sustained low dose B[a]P, 30 days

amount released per day and total amount released versus amount incorporated [1]: varied proportionally
concentration at 4 days ([2]; Sprague-Dawley, rat, liver, subcutaneous, 20 % w/w curcumin in two 2-cm polymeric matrices, implants 20% w/w, 4 days): ~40 ng/g
concentration at 7 days ([2]; Sprague-Dawley, rat, liver, subcutaneous, 20 % w/w curcumin in two 2-cm polymeric matrices, implants 20% w/w, 7 days): ~5 ng/g
concentration at 4 days ([2]; Sprague-Dawley, rat, lung, sc, 20 % w/w curcumin in two 2-cm polymeric matrices): ~15 ng/g
curcumin level in lung tissue ([2]; implants 20% w/w, after 7 days, maintained at 13 and 21 days): approximately 5 ng/g
curcumin level in liver tissue ([2]; implants 20% w/w, during the next 30 days): about 2.5 ng/g
curcumin release after 1 week [4]: approximately 200 μg/day
curcumin release after 31 days [4]: approximately 120 μg/day
curcumin release on day 2 [4]: approximately 390 μg
cumulative release after 1 month ([4]; 40 mg per implant): approximately 15 % of total agent load
curcumin release on day 1 ([4]; 2-cm implant, 40 mg): approximately 570 μg
release in PBS alone [6]: essentially no release
total release in vivo at the end of 3 weeks [7]: 19.9%
dose of curcumin delivered by the implant ([8]; bolus B[a]P study): approximately 80 μg/rat/day
Compound: COc1cc(/C=C/C(=O)CC(=O)/C=C/c2ccc(O)c(OC)c2)ccc1O [curcumin]
amount of curcumin released per day from device [3]: decreased and approached lower steady-state levels
CYP3A4 activity (CYP3A4; curcumin diet, 12 days): reduced to basal levels
CYP3A4 activity compared to untreated animals (CYP3A4; curcumin diet, after 4 days): significant higher
CYP3A4 activity (CYP3A4; curcumin diet, day 1): slightly higher activity
increase in CYP3A4 activity compared with sham implants (CYP3A4; curcumin implants): became significant only after 25 days
CYP3A4 activity (CYP3A4; curcumin implants, after 3 months): remained consistently upregualated
liver and kidney function [5]: did not induce any biochemical changes in liver and kidney function
lung DBP-DNA adduct levels (DBP-DNA adducts): virtually no effect
inhibition of B[a]P-induced DNA adducts, liver [8, 10]: 48%
inhibition of B[a]P-induced DNA adducts, lung [8, 10]: 17%
DNA adduct level, liver [8, 11]: 74±110 adducts/10^9 nucleotides
DNA adduct level, lung [8, 11]: 65±53 adducts/10^9 nucleotides
inhibition of B[a]P-induced DNA adducts, liver [8, 12]: 83%
inhibition of B[a]P-induced DNA adducts, lung [8, 12]: 45%
B[a]P-induced DNA adducts in liver and lung versus sham implant ([9]; 1 cm matrix 20% w/w curcumin, B[a]P implant, 30 days): inhibited the B[a]P-induced DNA adducts in both the liver and lung
inhibition of adducts, liver [9, 13]: 83%
inhibition of adducts, lung [9, 13]: 65%
DNA adduct level, liver [9, 14]: 4±0.7 adducts/10^9 nucleotides
DNA adduct level, lung [9, 14]: 9±5 adducts/10^9 nucleotides
